The values below come from patent publication US20230067910A1, “NOVEL COMPOUNDS FOR THE DIAGNOSIS, TREATMENT AND PREVENTION OF DISEASES ASSOCIATED WITH THE AGGREGATION OF ALPHA-SYNUCLEIN” (MODAG GMBH, priority 2019, published 2023).

Values joined by “and” are separate entries in the source; they are usually repeats but may differ in a detail not shown here. Identical values can stand only once. Like-named read-outs stand apart in the source and are kept apart here. Bounds are passed on as bounds.

A short description of data set [1]: In vivo biodistribution of [11C]-labeled compounds, small animal PET. To be noted: [11C]-labeled compound, intravenous tail vein, mice; for half-life: mouse, brain, read-out: Clearance half-life (brain). How it is done:
[^11C]-labeled compound 1 and compound 2, respectively, were injected intravenously in the tail vein of mice. Mice were then imaged in a small animal PET instrument. For both compounds, a good blood-brain-barrier penetration with SUV values >1.5 was observed.

For data set [2], the target named is T1, aggregated alpha-synuclein (Homo sapiens, UniProt P37840).
T1 construct: made in house; host or cells: E. coli
Nature of the data set: Modified saturation binding assay, protocol 2b, alpha-synuclein fibrils. The following applies: saturation assay protocol 2b, sonicated fibrils 15 nM/well. How it is done:
Alpha-synuclein and tau46 were purified from E. coli according to established protocols (Nuscher B, et al., J. Biol. Chem., 2004; 279(21):21966-75), Aβ1-42 was obtained from rPeptide, Watkinsville, Ga., USA. Fibrils were prepared by aggregation of recombinant protein via constant agitation. In detail, 70 μM of alpha-synuclein mixed with 100 mM NaCl in 50 mM Tris, pH 7.0+0.02% NaN3 were incubated at 1,400 rpm, 37° C. for 96 h. 10 μM of tau46 were incubated with 0.03 mg/ml heparin in 50 mM Tris, pH=7.0 at 1,000 rpm, 37° C. for 72 h. […]
For saturation binding assays, a fixed concentration of sonicated human recombinant αSYN (15 nM/well) or tau46 (250 nM/well) or Aβ1-42 (1 μM/well) fibrils diluted in phosphate buffered saline (PBS) were incubated in low binding plates (96 well micro test plate, Ratiolab GmbH, Dreieich, Germany) with [H]-compound 1 or [PH]-compound 2 at increasing concentrations (from 0.05 nM to 12 nM/24 nM) in 30 mM Tris HCl, 10% ethanol, 0.05% Tween20, pH 7.4 (hereafter referred to as incubation buffer) in a total volume of 200 μL/well. Non-specific binding of the radiotracer was determined by coincubation with 400 nM non-labeled compound 1 or compound 2. The optimal fibril concentrations were determined using a concentration determination assay. […]

The target in data set [3] is T2, alpha-synuclein (fibrils) (Homo sapiens, UniProt P37840).
T2 construct: made in house; host or cells: E. coli
Nature of the data set: Competition binding assay, protocol 3a, reference ligand [3H]-compound 1, alpha-synuclein fibrils. To be noted: reference ligand [3H]-compound 1 (1 nM). How it is done:
Alpha-synuclein and tau46 were purified from E. coli according to established protocols (Nuscher B, et al., J. Biol. Chem., 2004; 279(21):21966-75), Aβ1-42 was obtained from rPeptide, Watkinsville, Ga., USA. Fibrils were prepared by aggregation of recombinant protein via constant agitation. In detail, 70 μM of alpha-synuclein mixed with 100 mM NaCl in 50 mM Tris, pH 7.0+0.02% NaN3 were incubated at 1,400 rpm, 37° C. for 96 h. 10 μM of tau46 were incubated with 0.03 mg/ml heparin in 50 mM Tris, pH=7.0 at 1,000 rpm, 37° C. for 72 h. Aβ1-42 was solved in 20 mM NaPi, pH=8.0+0.2 mM EDTA+0.02% NaN3 (Deeg A A, et al., Biochim. Biophys. Acta, 2015; 1850(9): 1884-90; Goedert M, et al. Nature, 1996; 383(6600): 550-3).
A fixed concentration of sonicated human recombinant αSYN (200 nM/well) or tau46 (208 nM/well) fibrils diluted in phosphate buffered saline (PBS) were incubated in low binding plates (96 well micro test plate, Ratiolab GmbH, Dreieich, Germany) together with 1 nM [^3H]-compound 1 and 1:4 serial dilutions of the cold compound of interest starting from 1 μM diluted in 50 mM Tris-base, 10% EtOH, 0.05% Tween20, pH 7.4. For the calculation of Ki values the KD value of compound 1 toward sonicated human recombinant αSYN fibrils was set to 3 nM.
Assay plates were incubated under agitation at 37° C. for 2 h covered by plastic foil (Resealable tape, PerkinElmer, Waltham, Mass., USA). Prior to harvesting, a filter (Printed filtermat B, PerkinElmer, Waltham, Mass., USA) was incubated with 5 mg/mL polyethylenimine (PEI, Poly(ethyleneimine) solution, Sigma Aldrich Chemie GmbH, Taufkirchen, Germany) at 4° C. for 30 min. After incubation, bound and free ligands were separated by vacuum filtration using a harvester (Filtermate harvester, PerkinElmer, Waltham, Mass., USA). The filter was washed three times with buffer cooled to 4° C. and subsequently dried in the microwave for 2 min at medium power. The filter was sealed in a plastic bag (Sample bag for MicroBeta®, PerkinElmer, Waltham, Mass., USA) together with added scintillator (BETAPLATE SCINT, PerkinElmer, Waltham, Mass., USA). Accumulation of tritium was counted in a liquid scintillation counter (Wallac MicroBeta® TriLux, 1450 LSC & Luminescence Counter, PerkinElmer, Waltham, Mass., USA) immediately. Radioactivity was plotted against the increasing tritium-labeled compound or cold compound concentrations. Data points were fitted using nonlinear regression analysis in GraphPad Prism (GraphPad Software, Inc., Version 7.03, La Jolla, Calif., USA).
The fibril competition assay provides Ki values. Ki is a quantitative measure that represents the concentration of the non-radioactive tested compound (competitor ligand) required to replace 50% of a reference compound, in this case [H]-compound 1 (1 nM) or [H]-compound 2 (1 nM), which is bound to the target structures (1 nM), in our case recombinant alpha-synuclein and tau46 fibrils. This assay is suitable for a screening of non-radioactive ligands.

The mark [4] stands for this setting: Experiment B, read-out: Ki (nM) alpha-synuclein (sonicated fibrils).

One may read the half-life as the time needed for the level to fall by half in the phase considered. Usually Kd stands for a measure of binding affinity in units of concentration. The Ki is the equilibrium dissociation constant of an inhibitor or competing ligand from its target. `CNc1ccc(-c2cc(-c3ccnc(Br)c3)[nH]n2)cc1` [Compound 2, 4-[5-(2-bromopyridin-4-yl)-1H-pyrazol-3-yl]-N-methylaniline]: in data set [1], the “Washout from the brain” value was “rapid washout from the brain” and the half-life worked out at 9 min. Also, the Kd in data set [2] was 0.2 nM. Moreover, the inhibition constant Ki in data set [3] (setting [4]) is < 2 nM.
Take `Fc1cc(-c2cc(-c3ccc4c(c3)OCO4)n[nH]2)ccn1` [Compound 12, 4-[3-(1,3-benzodioxol-5-yl)-1H-pyrazol-5-yl]-2-fluoropyridine]: the Ki in data set [3] (Experiment A, read-out: Ki (nM) alpha-synuclein (fibrils)) is 47 nM and 42 nM; in data set [3] (setting [4]) it was 9 nM.
For `CN(C)c1ccc(-c2cc(-c3ccnc(Br)c3)[nH]n2)cc1` [Compound 1, 4-[3-(4-dimethylamino-phenyl)-1H-pyrazol-5-yl]-2-bromopyridine], in data set [1], the “Washout from the brain” value is “rapid washout from the brain” and the half-life is 12 min. Further, the dissociation constant (Kd) in data set [2] was found to be 0.6 nM.
